Experimental data published in patent US8889711B2, “Pyrazolopyridine derivatives as anticancer agent” (Pierre Fabre Medicament, priority 2009, dated 2014).
pIC50: −log10 of the molar value.

Experiments:
ALK kinase = ALK kinase (Homo sapiens, UniProt Q9UM73); test: Test to measure ALK kinase inhibition (GST-PLCγ1 substrate, anti-phosphotyrosine ELISA, luminescence); format: biochemical; conditions: ALK kinase 180 ng/ml, 250 μM ATP, 30 minutes at 30° C.
Experimental: Test to Measure ALK Kinase Inhibition
A ViewPlate (Packard) is incubated with the GST-PLCγ1 substrate (purified recombinant form) at 0.1 mg/ml in phosphate buffer (PBS pH 7.4)(100 μl/well) for one hour under shaking. The plate is then saturated with a blocking solution containing 5% bovine serum albumin (BSA) (SIGMA) in PBS buffer pH 7.4.
After adding the inhibitor at the desired final concentration (usual range of 30 μM to 10 nM), the reaction is conducted by adding the ALK kinase at 180 ng/ml in 13 mM Tris reaction buffer pH 7.5 (SIGMA); 6.5 mM MgCl2 (MERCK); 0.65 mM DiThioThreitol (DTT) (ACROS); 39 mM sodium β-glycerophosphate (TCI); 0.65 mM sodium orthovanadate (SIGMA) and 250 μM ATP (SIGMA). Incubation is carried out for 30 minutes at 30° C. under shaking.
After three washings under shaking in 0.1% PBS/Tween-20 buffer (SIGMA), an anti-phosphotyrosine antibody coupled with HRP (UBI) diluted to 1/1000th in PBS/BSA buffer 5 mg/ml, is incubated for one hour under shaking. After three further washings in 0.1% PBS/Tween-20, the wells are incubated two minutes with 100 μl of SuperSignal ELISA mixture (PIERCE).
The signal is read in luminescent mode using a luminometer (MOLECULAR DEVICES SpectraMax M5e).

karpas 299 cells = test: Measurement of inhibition of cell proliferation (Karpas), ATPlite; format: cell-based
Experimental: Measurement of Inhibition of Cell Proliferation (Karpas):
The antiproliferative activities of the compounds were measured using the ATPlite technique (Perkin Elmer).
The non-adhering cells (karpas 299) are seeded in 96-well plates (300 000 cells/ml) on Day 1 at a concentration compatible with logarithmic growth for 72 hours required for evaluation of the compounds. All the cells are treated on Day 1, then placed in an incubator at 37° C. under 5% CO2 atmosphere. Cell viability is evaluated on Day 4 by assay of released ATP, characteristic of viable cells. The IC50 values are determined by non-linear regression on the basis of a sigmoid model of dose/response relationship, Hill's slope coefficient being left variable, performed using GraphPad software sequence with the supplied algorithm.

Sequence of ALK kinase (Q9UM73 19-1620): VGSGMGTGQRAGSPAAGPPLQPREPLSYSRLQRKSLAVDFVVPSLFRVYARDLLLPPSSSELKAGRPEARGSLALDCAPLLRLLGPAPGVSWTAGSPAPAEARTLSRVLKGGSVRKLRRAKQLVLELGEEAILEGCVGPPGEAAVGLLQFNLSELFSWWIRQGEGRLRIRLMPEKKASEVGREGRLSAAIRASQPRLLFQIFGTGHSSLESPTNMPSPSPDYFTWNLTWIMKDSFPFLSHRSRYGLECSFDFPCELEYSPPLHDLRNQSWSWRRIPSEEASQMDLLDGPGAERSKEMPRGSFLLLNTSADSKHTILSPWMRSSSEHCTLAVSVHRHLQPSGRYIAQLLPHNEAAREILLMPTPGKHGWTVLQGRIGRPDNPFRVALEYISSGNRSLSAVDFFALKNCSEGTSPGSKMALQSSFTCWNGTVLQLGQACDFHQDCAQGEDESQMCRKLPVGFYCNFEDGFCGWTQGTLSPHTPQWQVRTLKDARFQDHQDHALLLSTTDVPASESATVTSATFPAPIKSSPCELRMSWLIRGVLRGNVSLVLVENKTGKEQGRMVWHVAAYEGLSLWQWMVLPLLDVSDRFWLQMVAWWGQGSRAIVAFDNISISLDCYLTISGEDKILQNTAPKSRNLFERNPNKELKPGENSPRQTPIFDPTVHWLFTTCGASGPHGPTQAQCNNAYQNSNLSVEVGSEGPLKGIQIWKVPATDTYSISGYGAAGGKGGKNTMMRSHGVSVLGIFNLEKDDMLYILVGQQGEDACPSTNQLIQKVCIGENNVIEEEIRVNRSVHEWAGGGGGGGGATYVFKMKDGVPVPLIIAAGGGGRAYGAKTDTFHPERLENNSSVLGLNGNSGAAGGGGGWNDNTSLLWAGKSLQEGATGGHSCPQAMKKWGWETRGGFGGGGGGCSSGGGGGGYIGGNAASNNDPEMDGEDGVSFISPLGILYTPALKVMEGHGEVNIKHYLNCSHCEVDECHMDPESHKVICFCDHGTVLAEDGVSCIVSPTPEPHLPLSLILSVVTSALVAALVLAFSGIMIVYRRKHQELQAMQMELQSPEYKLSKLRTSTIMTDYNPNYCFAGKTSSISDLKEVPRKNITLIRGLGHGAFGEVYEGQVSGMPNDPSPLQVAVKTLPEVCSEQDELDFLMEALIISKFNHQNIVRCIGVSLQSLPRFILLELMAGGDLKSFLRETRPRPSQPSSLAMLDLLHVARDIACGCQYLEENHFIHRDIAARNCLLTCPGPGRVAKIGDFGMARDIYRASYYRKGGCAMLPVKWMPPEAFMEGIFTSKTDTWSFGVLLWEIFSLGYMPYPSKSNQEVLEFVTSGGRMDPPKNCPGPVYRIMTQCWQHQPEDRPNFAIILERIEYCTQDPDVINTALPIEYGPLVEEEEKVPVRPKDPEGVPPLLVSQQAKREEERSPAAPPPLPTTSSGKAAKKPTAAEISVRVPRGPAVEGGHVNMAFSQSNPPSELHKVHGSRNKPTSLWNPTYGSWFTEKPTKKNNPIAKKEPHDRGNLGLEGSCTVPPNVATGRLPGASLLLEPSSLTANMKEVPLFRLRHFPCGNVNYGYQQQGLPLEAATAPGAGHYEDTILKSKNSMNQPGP

Compound	pIC50 (ALK kinase)	pIC50 (karpas 299 cells; Homo sapiens, KARPAS-299, 72 h)	pIC50 (karpas 299 cells; 72 hours)
CCN(CC)CCSc1ccc(-c2c(C#N)c(-c3ccc(O)cc3F)nc3[nH]nc(C)c23)o1 [Compound 132]	> 7.00	< 5.00	–
Cc1n[nH]c2nc(-c3ccc(O)cc3F)c(C#N)c(-c3ccc(N4CCC(N)CC4)o3)c12 [Compound 133]	> 7.00	6.00 to 7.00	–
Cc1n[nH]c2nc(-c3ccc(O)cc3F)c(C#N)c(-c3ccc(N4CC[C@H](N)C4)o3)c12 [Compound 134]	> 7.00	5.00 to 6.00	–
Cc1n[nH]c2nc(-c3ccc(O)cc3F)c(C#N)c(C(=O)NN3CCN(C)CC3)c12 [Compound 135]	6.00 to 7.00	< 5.00	–
Cc1n[nH]c2nc(-c3ccc(O)cc3F)c(C#N)c(C(=O)NCCN3CCOCC3)c12 [Compound 136]	5.00 to 6.00	< 5.00	–
Cc1n[nH]c2nc(-c3ccc(O)cc3F)c(C#N)c(-c3ccc(S(=O)(=O)O)o3)c12 [Compound 137]	6.00 to 7.00	< 5.00	–
Cc1n[nH]c2nc(-c3ccc(O)cc3F)c(C#N)c(C3C[C@@H]3C(=O)NCC3CCNCC3)c12 (stereo partly drawn) [Compound 138]	6.00 to 7.00	< 5.00	–
Cc1n[nH]c2nc(-c3ccc(O)cc3F)c(C#N)c(-c3ccc(N4CCC(N5CCN(C)CC5)CC4)o3)c12 [Compound 142]	> 7.00	–	< 5.00
Cc1n[nH]c2nc(-c3ccc(O)cc3F)c(C#N)c(-c3ccc([N+](=O)[O-])cc3)c12 [Compound 143]	5.00 to 6.00	< 5.00	–
Cc1n[nH]c2nc(-c3ccc(O)cc3F)c(C#N)c(C3C[C@@H]3C(=O)N3CCNCC3)c12 (stereo partly drawn) [Compound 146]	6.00 to 7.00	< 5.00	–
Cc1n[nH]c2nc(-c3ccc(O)cc3F)c(C#N)c(C3C[C@@H]3C(=O)N3CC[C@@H](N)C3)c12 (stereo partly drawn) [Compound 147]	5.00 to 6.00	< 5.00	–
Cc1n[nH]c2nc(-c3ccc(O)cc3F)c(C#N)c(-c3ccc(C#N)cc3)c12 [Compound 148]	5.00 to 6.00	5.00 to 6.00	–
Cc1n[nH]c2nc(-c3ccc(O)cc3F)c(C#N)c(-c3cnc(N)s3)c12 [Compound 150]	6.00 to 7.00	< 5.00	–
Cc1n[nH]c2nc(-c3ccc(O)cc3F)c(C#N)c(-c3csc(C4CCNCC4)n3)c12 [Compound 152]	6.00 to 7.00	–	< 5.00
Cc1n[nH]c2nc(-c3ccc(O)cc3F)c(C#N)c(-c3ccc(N4CCC(O)CC4)o3)c12 [Compound 153]	> 7.00	5.00 to 6.00	–
Cc1n[nH]c2nc(-c3c(F)cc(O)cc3F)c(C#N)c(-c3ccc(N4CCNCC4)cc3)c12 [Compound 154]	> 7.00	6.00 to 7.00	–
Cc1n[nH]c2nc(-c3c(F)cc(O)cc3F)c(C#N)c(-c3ccc(N4CC[C@@H](N)C4)o3)c12 [Compound 155]	> 7.00	5.00 to 6.00	–
Cc1n[nH]c2nc(-c3ccc(O)cc3F)c(C#N)c(-c3ccc(N4CC[C@@H](O)C4)o3)c12 [Compound 156]	> 7.00	6.00 to 7.00	–
Cc1n[nH]c2nc(-c3ccc([N+](=O)[O-])cc3F)c(C#N)c(-c3ccc(N4CCNCC4)cc3)c12 [Compound 158]	5.00 to 6.00	< 5.00	–
Cc1n[nH]c2nc(-c3ccc(O)cc3F)c(C#N)c(-c3ccc(N4CCC(N(C)C)C4)o3)c12 (stereo not drawn) [Compound 159]	> 7.00	6.00 to 7.00	–
Cc1n[nH]c2nc(-c3ccc(N)cc3F)c(C#N)c(-c3ccc(N4CCNCC4)cc3)c12 [Compound 160]	5.00 to 6.00	< 5.00	–
Cc1n[nH]c2nc(-c3c(F)ccc(F)c3F)c(C#N)c(-c3ccc(N4CCNCC4)cc3)c12 [Compound 161]	6.00 to 7.00	< 5.00	–
Cc1n[nH]c2nc(-c3ccc(O)cc3F)c(C#N)c(-c3ccc(N4CCC(N5CCCC5)CC4)o3)c12 [Compound 162]	> 7.00	6.00 to 7.00	–

Compound	pIC50 (ALK kinase)	pIC50 (karpas 299 cells; Homo sapiens, KARPAS-299, 72 h)	pIC50 (karpas 299 cells; 72 hours)
Cc1n[nH]c2nc(-c3ccc(O)cc3F)c(C#N)c(-c3ccc(N4CCC(CN)C4)o3)c12 (stereo not drawn) [Compound 163]	> 7.00	5.00 to 6.00	–
N#Cc1c(-c2ccc(O)cc2F)nc2[nH]nc(N)c2c1-c1ccc(N2CC3CNCC3C2)o1 (stereo not drawn) [Compound 164]	6.00 to 7.00	< 5.00	–
Cc1n[nH]c2nc(-c3ccc(O)cc3F)c(C#N)c(-c3csc(C4CCNCC4)n3)c12 [Compound 165]	6.00 to 7.00	–	5.00 to 6.00
Cc1n[nH]c2nc(-c3ccc(O)cc3F)c(C#N)c(-c3cnc(N4CCN(C)CC4)s3)c12 [Compound 167]	6.00 to 7.00	5.00 to 6.00	–
Cc1n[nH]c2nc(-c3ccc(O)cc3F)c(C#N)c(C(=O)NC3CCNCC3)c12 [Compound 168]	5.00 to 6.00	< 5.00	–
Cc1n[nH]c2nc(-c3ccc(O)cc3F)c(C#N)c(-c3ccc(N4CCC(N5CCN(C)CC5)CC4)o3)c12 [Compound 169]	> 7.00	–	6.00 to 7.00
Cc1n[nH]c2nc(-c3ccc(O)cc3F)c(C#N)c(-c3ccc(N4CCOCC4)o3)c12 [Compound 171]	6.00 to 7.00	6.00 to 7.00	–
Cc1n[nH]c2nc(-c3ccc(O)cc3F)c(C#N)c(-c3ccc(N4CCNCC4)o3)c12 [Compound 172]	6.00 to 7.00	5.00 to 6.00	–
Cc1n[nH]c2nc(-c3ccc(O)c(Br)c3)c(C#N)c(-c3ccc(N4CCNCC4)cc3)c12 [Compound 175]	6.00 to 7.00	5.00 to 6.00	–
Cc1cc(-c2nc3[nH]nc(C)c3c(-c3ccc(N4CCNCC4)cc3)c2C#N)ccc1O [Compound 176]	6.00 to 7.00	6.00 to 7.00	–
COc1cc(-c2c(C#N)c(-c3ccc(O)cc3F)nc3[nH]nc(C)c23)ccc1OCCCN(C)C [Compound 177]	6.00 to 7.00	5.00 to 6.00	–
Cc1n[nH]c2nc(-c3ccc(O)cc3F)c(C#N)c(-c3ccc(OCCCN(C)C)cc3)c12 [Compound 178]	> 7.00	6.00 to 7.00	–
Cc1n[nH]c2nc(-c3ccc(O)c(Cl)c3)c(C#N)c(-c3ccc(N4CCNCC4)cc3)c12 [Compound 180]	> 7.00	6.00 to 7.00	–
N#Cc1c(-c2ccc(O)cc2F)nc2[nH]nc(N)c2c1-c1ccc(N2CCNCC2)cc1F [Compound 181]	> 7.00	5.00 to 6.00	–
Cc1n[nH]c2nc(-c3ccc(O)cc3F)c(C#N)c(-c3ccc(N4CCNCC4)cc3)c12 [Compound 182]	> 7.00	–	5.00 to 6.00
N#Cc1c(-c2ccc(O)cc2F)nc2[nH]nc(N)c2c1-c1ccc(N2CCOCC2)o1 [Compound 183]	> 7.00	5.00 to 6.00	–
Cc1n[nH]c2nc(-c3ccc(O)cc3F)c(C#N)c(-c3ccc(N4CCN(C)CC4)s3)c12 [Compound 184]	> 7.00	6.00 to 7.00	–
N#Cc1c(-c2ccc(O)cc2F)nc2[nH]nc(N)c2c1-c1ccc(C2=CCNCC2)cc1 [Compound 186]	> 7.00	5.00 to 6.00	–
Cc1cc(-c2nc3[nH]nc(N)c3c(-c3ccc(N4CCNCC4)cc3)c2C#N)ccc1O [Compound 187]	> 7.00	5.00 to 6.00	–
N#Cc1c(-c2ccc(O)cc2F)nc2[nH]nc(N)c2c1-c1ccc(N2CC[C@H](N)C2)cc1 [Compound 188]	> 7.00	5.00 to 6.00	–
Cc1cc(O)ccc1-c1nc2[nH]nc(C)c2c(-c2ccc(N3CCNCC3)cc2)c1C#N [Compound 189]	6.00 to 7.00	5.00 to 6.00	–
N#Cc1c(-c2ccc(O)cc2F)nc2[nH]nc(N)c2c1-c1ccc(N2CCC(N)CC2)o1 [Compound 190]	> 7.00	5.00 to 6.00	–
